The record followed here is patent publication US9248148B2, “Mono (iron hydroxypyrone) and combination (iron hydroxypyrone and GI inflammation inhibiting agents) compositions for anaemia or H. pylori infections” (Iron Therapeutics Holdings AG, priority 2008, dated 2016).

This series concerns anaemia due to blood loss. In words: Patient 1: anaemia after surgical blood loss, treated while continuing Gaviscon (acid reducer). The source says:
The patient had been taking Gaviscon™ which contains potassium bicarbonate as an acid reducer to reduce acid reflux. […] They continued to take Gaviscon™ but was also given ferrous sulphate tablets for their anaemia.

In the case of `O=S(=O)([O-])[O-].[Fe+2]` [ferrous sulphate], the correction of anaemia entry (patient 1, continuing Gaviscon (potassium bicarbonate)) was “failed to correct their anaemia”. The “tolerability / side effects” value (patient 1, continuing Gaviscon, maltol and ferrous gluconate at 45 mg/day) was “serious side effects of gastric intolerance and severe headaches”.
